Assay results as given in ChEMBL document CHEMBL5131388, “Discovery of novel brain-penetrant GluN2B NMDAR antagonists via pharmacophore-merging strategy as anti-stroke therapeutic agents” (Eur J Med Chem, 2022).

Legend:
[1] = MRTinf in Sprague-Dawley rat at 10 mg/kg, po measured up to 24 hrs by LC/MS-MS analysis; type: ADME, organism-based; details: in vivo
[2] = AUCinf in Sprague-Dawley rat at 2.5 mg/kg, iv measured up to 24 hrs by LC/MS-MS analysis; type: ADME, organism-based; set-up: dose 2.5 mg/kg, time < 24 hrs, route iv; details: in vivo
[3] = Toxicity in Sprague-Dawley rat assessed as change in blood glucose level at 150 to 300 mg/kg, po administered as repeated dose once daily for 2 weeks; type: organism-based; details: in vivo, 336 h, dose 150-300 mg/kg
Glutamate NMDA receptor = test: Displacement of [3H] ifenprodil from Wistar rat glutamate NMDA receptor incubated for 2 hrs by scintillation counting method; type: protein-complex assay
[4] = Ratio AUClast in Sprague-Dawley rat brain to plasma at 2.5 mg/kg, iv measured up to 24 hrs by LC/MS-MS analysis; type: ADME, organism-based; details: brain and plasma
[5] = AUClast in Sprague-Dawley rat at 2.5 mg/kg, iv measured up to 24 hrs by LC/MS-MS analysis; type: ADME, organism-based; set-up: dose 2.5 mg/kg, time < 24 hrs, route iv; details: in vivo
[6] = Neuroprotective activity against NMDA-induced neurotoxicity in Sprague-Dawley rat hippocampal neurons assessed as increase in cell viability at 10 uM incubated for 18 hrs followed by NMDA addition and measured after 0.5 hrs by MTT assay; type: functional, Hippocampal neurone; details: time 18.5 hrs, 10 µM
[7] = Toxicity in Sprague-Dawley rat assessed as animal death at 300 mg/kg, po administered as repeated dose once daily for 2 weeks; type: organism-based; details: in vivo, 336 h
[8] = Bioavailability in Sprague-Dawley rat at 2.5 mg/kg, iv measured up to 24 hrs by LC/MS-MS analysis; type: ADME, organism-based; details: in vivo
[9] = Half life in Sprague-Dawley rat at 10 mg/kg, po measured up to 24 hrs by LC/MS-MS analysis; type: ADME, organism-based; details: in vivo
[10] = AUCinf in Sprague-Dawley rat at 10 mg/kg, po measured up to 24 hrs by LC/MS-MS analysis; type: ADME, organism-based; set-up: time < 24 hrs, dose 10 mg/kg, route po; details: in vivo
[11] = Half life in Sprague-Dawley rat at 2.5 mg/kg, iv measured up to 24 hrs by LC/MS-MS analysis; type: ADME, organism-based; details: in vivo
[12] = Clearance in Sprague-Dawley rat at 2.5 mg/kg, iv measured up to 24 hrs by LC/MS-MS analysis; type: ADME, organism-based; details: in vivo
[13] = Toxicity in Sprague-Dawley rat assessed as increase in AST level at 300 mg/kg, po administered as repeated dose once daily for 2 weeks; type: organism-based; details: in vivo, 336 h
[14] = Tmax in Sprague-Dawley rat at 10 mg/kg, po measured up to 24 hrs by LC/MS-MS analysis; type: ADME, organism-based; details: in vivo
[15] = Toxicity in Sprague-Dawley rat assessed as change in spleen/brain index at 150 to 300 mg/kg, po administered as repeated dose once daily for 2 weeks; type: organism-based; details: in vivo, 336 h, dose 150-300 mg/kg
Rattus norvegicus [16] = test: Neuroprotective activity in Sprague-Dawley rat model of middle cerebral artery occlusion-induced ischemia-reperfusion injury assessed as decrease in cerebral infarction rate at 20 mg/kg, po measured 24 hrs post injury by TTC staining based histological analysis; type: functional; set-up: scale not given: the % may be the effect or the level left
[17] = Toxicity in Sprague-Dawley rat assessed as change in ALT level at 150 to 300 mg/kg, po administered as repeated dose once daily for 2 weeks; type: organism-based; details: in vivo, 336 h, dose 150-300 mg/kg
[18] = Cmax in Sprague-Dawley rat at 2.5 mg/kg, iv measured up to 24 hrs by LC/MS-MS analysis; type: ADME, organism-based; set-up: dose 2.5 mg/kg, time < 24 hrs, route iv; details: in vivo
[19] = AUClast in Sprague-Dawley rat at 10 mg/kg, po measured up to 24 hrs by LC/MS-MS analysis; type: ADME, organism-based; set-up: dose 10 mg/kg, time < 24 hrs, route po; details: in vivo
[20] = Toxicity in Sprague-Dawley rat assessed as change in white blood cell count at 150 to 300 mg/kg, po administered as repeated dose once daily for 2 weeks; type: organism-based; details: in vivo, 336 h, dose 150-300 mg/kg
[21] = Toxicity in Sprague-Dawley rat assessed as change in liver/brain index at 150 to 300 mg/kg, po administered as repeated dose once daily for 2 weeks; type: organism-based; details: in vivo, 336 h, dose 150-300 mg/kg
[22] = Toxicity in Sprague-Dawley rat assessed as body weight loss at 300 mg/kg, po administered as repeated dose once daily for 2 weeks; type: organism-based; details: in vivo, 336 h
[23] = MRTinf in Sprague-Dawley rat at 2.5 mg/kg, iv measured up to 24 hrs by LC/MS-MS analysis; type: ADME, organism-based; details: in vivo
[24] = Neuroprotective activity against NMDA-induced neurotoxicity in Sprague-Dawley rat hippocampal neurons assessed as increase in cell viability at 1 uM incubated for 18 hrs followed by NMDA addition and measured after 0.5 hrs by MTT assay; type: functional, Hippocampal neurone; details: time 18.5 hrs, 1 µM
[25] = Cmax in Sprague-Dawley rat at 10 mg/kg, po measured up to 24 hrs by LC/MS-MS analysis; type: ADME, organism-based; set-up: dose 10 mg/kg, time < 24 hrs, route po; details: in vivo
[26] = Toxicity in Sprague-Dawley rat assessed as change in blood pressure at 150 to 300 mg/kg, po administered as repeated dose once daily for 2 weeks; type: organism-based; details: in vivo, 336 h, dose 150-300 mg/kg
[27] = Ratio AUClast in Sprague-Dawley rat brain to plasma at 10 mg/kg, po measured up to 24 hrs by LC/MS-MS analysis; type: ADME, organism-based; details: brain and plasma
[28] = Toxicity in Sprague-Dawley rat assessed as change in AST level at 150 to 300 mg/kg, po administered as repeated dose once daily for 2 weeks; type: organism-based; details: in vivo, 336 h, dose 150-300 mg/kg
[29] = Tmax in Sprague-Dawley rat at 2.5 mg/kg, iv measured up to 24 hrs by LC/MS-MS analysis; type: ADME, organism-based; details: in vivo
[30] = Neuroprotective activity against NMDA-induced neurotoxicity in Sprague-Dawley rat hippocampal neurons assessed as increase in cell viability at 0.1 uM incubated for 18 hrs followed by NMDA addition and measured after 0.5 hrs by MTT assay; type: functional, Hippocampal neurone; details: time 18.5 hrs, 0.1 µM
[31] = Toxicity in Sprague-Dawley rat assessed as change in kidney/brain index at 150 to 300 mg/kg, po administered as repeated dose once daily for 2 weeks; type: organism-based; details: in vivo, 336 h, dose 150-300 mg/kg
Rattus norvegicus [32] = test: Neuroprotective activity in Sprague-Dawley rat model of middle cerebral artery occlusion-induced ischemia-reperfusion injury assessed as decrease in neurological score at 20 mg/kg, po measured 24 hrs post injury by TTC staining based histological analysis; type: functional

**Q.** Which results are given for `O=C1OC(CCCN2CCN(Cc3ccc(C(F)(F)F)cc3)CC2)c2ccccc21` (racemic)?
**A.** MRT inf [1]: 3.25 h; AUC(0-inf) [2]: 1580 ng·h/mL; Activity [3]: Non-Toxic; Ki (Glutamate NMDA receptor): 3.26 nM; Kp at 24 h [4]: 0.71; AUC(0-t) at 24 h [5]: 1450 ng·h/mL; Activity [6]: 89.8%; Activity [7]: Non-Toxic; bioavailability [8]: 63.4%; half-life [9]: 1.88 h; AUC(0-inf) [10]: 4070 ng·h/mL; half-life [11]: 1.73 h; clearance [12]: 29.5 mL/min/kg; Activity [13]: Toxic; Tmax [14]: 1.5 h; Activity [15]: Non-Toxic; Activity (Rattus norvegicus [16]): 16.08%; Activity [17]: Non-Toxic; Cmax [18]: 2360 ng/mL; AUC(0-t) at 24 h [19]: 3670 ng·h/mL; Activity [20]: Non-Toxic; Activity [21]: Non-Toxic; Activity [22]: Toxic; MRT inf [23]: 1.68 h; Activity [24]: 78.45%; Cmax [25]: 972 ng/mL; Activity [26]: Non-Toxic; Kp at 24 h [27]: 0.85; Activity [28]: Non-Toxic; Tmax [29]: 1.02 min; Activity [30]: 60.14%; Activity [31]: Non-Toxic; Activity (Rattus norvegicus [32]): 1.88
